Here are results for 11 compounds from patent US6815450B2, “Axon regeneration with PKC inhibitors” (Children's Medical Center Corporation, priority 2002, dated 2004).

Counter-ions that a name gives are not always drawn. Residues, ends and D or L forms follow the SMILES beside them. *: point of attachment. Cbz = O=C(OCc1ccccc1)*; CH2F = FC*

For one data set, the target named is protein kinase C. The following applies: cited from earlier work.
Data set [1] deals with NG108 cells or cerebellar granule neurons (CGN) on immobilized recombinant MAG. In words: neurite outgrowth assay on immobilized recombinant MAG. The data set is classed as cell-based, rat. Here is the method: (§1) To assess the functional relevance of the activation of the PI3K, MEK and PLC-g pathways, we utilized a standard neurite outgrowth assay in which NG108 cells or cerebellar granule neurons (CGN) from postnatal day 7-9 (P7-9) rats were grown on immobilized recombinant MAG or myelin (5-10, 16). Pharmacological inhibitors of the individual pathways—LY294002 and wortmannin for PI3K, U0126 for MEK, and U73122 for PLC-g, were then added to assess whether and to what extent these inhibitors could overcome the inhibitory activity of MAG or of myelin. […] As MEK has been previously shown to be required for axon growth induced by chronic exposure to neurotrophins (14), but not for growth cone turning in acute responses to NGF gradients (12), our results of abolishing MAG inhibition by an MEK inhibitor imply that the MEK pathway can be required only for neurite outgrowth in response to external cues.

For data set [2], the system named is CGNs, DRG sensory neurons or NG108 cells on immobilized CNS myelin. The data set is described as follows: neurite outgrowth assay on CNS myelin substrate. It counts as cell-based, rat. As to conditions: for neurite outgrowth on immobilized CNS myelin: P7-9 rat CGNs and DRG sensory neurons. Here is the method: as §1
Based on the modulation of neurite outgrowth by modulating PKC activity, we predicted that inhibiting PKC activity might abolish or convert the inhibitory responses of neurons to MAG and other myelin-associated inhibitors. […] Based on existing evidence for the functional interactions between the PKA and PKC pathways (24), we conclude that both PKA and PKC act through parallel mechanisms in affecting neurite outgrowth. Although many PKC isoforms are expressed in the nervous system (25), our observations with phorbol ester and selective PKC inhibitors indicate the involvement of at least classical PKC isoforms whose activation is dependent on diacylglycerol (DAG) and calcium (24).
Screening for compounds that allow neurite outgrowth from postnatal day 7-9 rat cerebellar granule neurons (CGNs) on CNS myelin substrates, we identified several broad-specificity PKC inhibitors from a small molecule libraries. Based on their structure and substrate requirements, PKC isoforms can be divided into three classes: the Ca++ and second messenger diacylglycerol (DAG)-sensitive conventional PKCs (-α, -β, and -γ), the Ca++-independent but DAG-dependent novel PKCs (-δ, -ε, -η, -θ, and -μ), and the Ca++- and DAG-insensitive atypical PKCs (-ζ and -λ). We first examined PKC inhibitors with a higher specificity for the conventional class of PKC isotypes for their ability to promote neurite outgrowth on CNS myelin. These inhibitors included Chelerythrine, Calphostin, Bisindoleylmaleimide I, and Gö6976. Dose response experiments (in the range of 10 nM to 10 uM) were carried out for each PKC inhibitor.

Data set [3] concerns NG108 cells and CGNs transfected with Akt forms. The data set is described as follows: neurite outgrowth of Akt-transfected cells. The data set is classed as cell-based, rat. The arrangement: effect on pro-growth effect of dominant negative Akt / cell survival / process extension of constitutively active Akt expressing NG108 cells: unit of the concentration uncertain. From the text: Having determined that the PI3K pathway is both activated and required in MAG signaling, we next examined whether Akt, a major downstream effector of PI3K in promoting cell survival (13, 17) and in determining the directionality of cell movement during chemotaxis (18), could account for the neurite inhibitory effect of MAG. To this end, we transfected NG108 cells with three versions of the Akt product—a constitutive active, a dominant negative and a wild type form (19), and compared their effects on neurite outgrowth.
Since Akt has been thought of as a positive regulator of neurite outgrowth (21), our results with over-expression of constitutively active Akt came as a surprise. […] However, expression of dominant negative Akt led to the death of the transfected CGNs, consistent with a critical role of Akt in promoting cell survival (13, 17 and 19). Thus, the neurite outgrowth response elicited by Akt activation differs in a cell type specific manner.
Growth cone responses can be converted from attraction to repulsion and vice versa through the modification of cellular cyclic nucleotide levels (12, 16, 23). […] As the PLCg pathway is activated by MAG and PKC is a major effector of PLCg (15), we assessed whether changes in PKC activity could affect the activity of different forms of Akt in NG-108 cells on the PDL substrate.

A further data set has as its system NG108 cells and CGNs. The data set is described as follows: toxicity to cultured neuronal cells. It counts as cell-based, rat. As to conditions: even at 100 nM. Here is the method: as §1
Data set [4] deals with CGNs on MAG, Nogo-A and OMgp. In words: neurite outgrowth on individual myelin inhibitors. It counts as cell-based, rat. Here is the method:
[…] Based on their structure and substrate requirements, PKC isoforms can be divided into three classes: the Ca++ and second messenger diacylglycerol (DAG)-sensitive conventional PKCs (-α, -β, and -γ), the Ca++-independent but DAG-dependent novel PKCs (-δ, -ε, -η, -θ, and -μ), and the Ca++- and DAG-insensitive atypical PKCs (-ζ and -λ). […] These inhibitors included Chelerythrine, Calphostin, Bisindoleylmaleimide I, and Gö6976. Dose response experiments (in the range of 10 nM to 10 uM) were carried out for each PKC inhibitor.

The test system of data set [5] is neurons on CSPG substrate. The data set is described as follows: neurite outgrowth on CSPG substrate. It counts as cell-based, rat. The text has this:
We examined whether PKC is involved in the inhibitory activity of CSPG, the other major inhibitory activity associated with glial scars in the adult CNS.

Data set [6] relates to CGNs, DRG sensory neurons or NG108 cells on immobilized CNS myelin. The following applies: previously shown; cited from earlier work.
Setting [7] is: NG-108 cells, 10 (unit uncertain).

As a reminder, the IC50 is the point on the concentration scale where inhibition reaches its midpoint. As to `CC1CNCCN1S(=O)(=O)c1cccc2cnccc12` (racemic) [compound 542, (+−)-1-(5-Isoquinolinesulfonyl)-2-methylpiperazine dihydrochloride], the IC50 at protein kinase C is 6 µM. With `N#CC(=C(/N)Sc1ccccc1N)/C(C#N)=C(\N)Sc1ccccc1N` [U0126], the “neurite outgrowth on the MAG substrate” value in data set [1] is given as “promoted neurite outgrowth”. Take `O=S(=O)(c1cccc2cnccc12)N1CCNCC1` [compound 543, 1-(5-Isoquinolinesulfonyl)piperazine]: the IC50 at protein kinase C is 6 µM. As to bisindolylmaleimide [GFX], the “neurite outgrowth on immobilized CNS myelin” value in data set [2] was “profoundly affected neurite outgrowth by enhancing both the number of neurite-bearing cells and the length of neurites”. The “neurite outgrowth from untransfected cells and wild type Akt transfected cells” value in data set [3] is “did not result in significant alterations in neurite outgrowth”. In addition, in data set [3] (PDL substrate, 5 (unit uncertain)), the “process extension of constitutively active Akt expressing NG108 cells” value was “the majority of constitutively active Akt expressing NG108 cells extended processes”.

Take `COc1ccc2c(c1)CC[C@@H]1[C@@H]2CC[C@]2(C)[C@@H](NCCCCCCN3C(=O)C=CC3=O)CC[C@@H]12` [U73122]: the toxicity to cells entry in the data set with NG108 cells and CGNs is on record as “appeared toxic”. For the compound `Nc1nc2c(nc(Br)n2[C@@H]2O[C@@H]3COP(O)(=S)O[C@H]3[C@H]2O)c(=O)[nH]1` (some centres unmarked) [Rp-8-Br-cGMPS], the “neurite outgrowth on CNS myelin substrate” value in data set [2] (P7-9 rat CGNs) is recorded as “failed to overcome the inhibitory effects of CNS myelin”. For the compound calphostin C, the “neurite outgrowth on immobilized CNS myelin” value in data set [2] was “profoundly affected neurite outgrowth by enhancing both the number of neurite-bearing cells and the length of neurites”. In addition, the “neurite outgrowth on a CNS myelin substrate” value in data set [2] (P7-9 rat CGNs, 100 nM) is “profoundly mitigated outgrowth inhibition and promoted significant neurite outgrowth”. Besides, the “neurite outgrowth inhibition induced by MAG, Nogo-A and OMgp” value in data set [4] is on record as “efficiently overcame neurite outgrowth inhibition”.

With `CCCCCCCCCCCCCC(=O)O[C@@H]1[C@@H](C)[C@@]2(O)[C@@H](C=C(CO)C[C@]3(O)C(=O)C(C)=C[C@@H]23)[C@@H]2C(C)(C)[C@]12OC(C)=O` [PMA, phorbol myristate-13-acetate], the “neurite outgrowth from untransfected cells and wild type Akt transfected cells” value in data set [3] is on record as “did not result in significant alterations in neurite outgrowth”. In data set [3] (CGNs), the “neurite outgrowth promoting activity of active Akt in CGNs” value is recorded as “abolished the neurite outgrowth promoting activity of active Akt”. Besides, in data set [3] (PDL substrate, 100 nM), the “neurite outgrowth from NG108 cells expressing dominant negative Akt” value is given as “resulted in inhibition of neurite outgrowth”. As to `C[C@@H](N)[C@H]1CC[C@H](C(=O)Nc2ccncc2)CC1` [Y-27632], in data set [5], the “effect on CSPG substrate relative to chondroitinase ABC” value is recorded as “stronger effects than chondroitinase ABC” and the “neurite outgrowth from neurons on CSPG substrate” value is reported as “allowed the cultured neurons to overcome the inhibitory activity of CSPG”. Also, the “block of the inhibitory activity of CNS myelin and its components” value in data set [6] was “block the inhibitory activity of CNS myelin and its components”. Consider `Nc1ncnc2c1ncn2[C@@H]1O[C@@H]2COP(O)(=S)O[C@H]2[C@H]1O` (some centres unmarked) [sp-cAMP], for which the “neurite outgrowth on immobilized CNS myelin” value in data set [2] was “stimulated neurite outgrowth”. `CC(NC(=O)C(NC(=O)OCc1ccccc1)C(C)C)C(=O)NC(CC(=O)O)C(=O)CF` (stereo not drawn) [ZVAD] (Cbz-Val-Ala-Asp-CH2F; configuration not given here): in data set [3] (setting [7]), the cell survival entry was “enhancing cell survival” and the “effect on pro-growth effect of dominant negative Akt” value is “did not affect the pro-growth effect of the dominant negative form of Akt”.
